Measured values reported in patent US20220193013A1, “Pharmaceutical Composition for Treatment or Prevention of Multiple Inflammatory Disorders” (priority 2020, published 2022).

What was measured:
Type in all cases: in vivo, mouse
[1] = tested on: air pouch model of inflammation, C57BL/6 mice; assay: murine air pouch model of inflammation (LPS induction)
Experimental: This example provides the results of investigating DA to modulate immune response in a murine air pouch model of inflammation. Eight C57BL/6 mice were assigned to groups for gavage treatment (BID) of controls (distilled water), DA at a dose of 23.1 mg/kg BID (low dose DA), and DA at a dose of 96.4 mg/kg BID (high dose DA). What was measured was infiltrating cell counts with air pouch exudates, IL-6 levels in air pouch exudates by an ELISA assay (R&D Systems Cat. No. M6000B), and multiple cytokine analysis (Mouse 32Plex Kit MilliporeSigma Cat. No. MCYTMAG70PMX32BK). Statistical analysis was done by a one-way ANOVA followed by Tukey's multiple comparison post hoc test for data with normal distribution, Kruskal-Wallis test followed by Dunn's multiple comparison post hoc test for data with skewed distribution, and the ROUT method for identifying outliers.
Duarte et al., Current Protocols in Pharmacology, 5.6.1-5.6.8 Mar. 2012, describes “The subcutaneous air pouch is an in vivo model that can be used to study acute and chronic inflammation, the resolution of the inflammatory response, and the oxidative stress response. Injection of irritants into an air pouch in rats or mice induces an inflammatory response that can be quantified by the volume of exudate produced, the infiltration of cells, and the release of inflammatory mediators. The model presented in this unit has been extensively used to identify potential anti-inflammatory drugs.” It can be used to study localized inflammation without systemic effects. But in this case the drug was administered orally, by gavage BID.
Test administration was 5 ml/kg body weight BID dosing with 8 hour intervals. The air pouch was created in each test BL6 mouse by sc injection of 1.5 ml/mouse of sterile air on day 0 and 1.5 ml/mouse of sterile air on day 3. Compounds (or control distilled water) were administered BID on day −2. LPS (0.75 mg/animal in 1 ml endotoxin free PBS) was administered at hour 0 or one hour after dosing with test compounds. Plasma samples were collected at termination and exudates of the air pouches for all groups. Cell count analysis and IL-6 assays were conducted at the animal facility and plasma and exudate samples were sent out for cytokine analysis. Each group of distilled water control, 23.1 mg/kg DA and 92.4 mg/kg DA had 8 mice each.

[2] = tested on: DSS-induced colitis in mice; assay: dextran sulfate sodium (DSS)-induced colitis in mice
Source text: This example provides the results of an in vivo study in a dextran sulfate sodium (DSS)-induced colitis in mice model. Inflammatory bowel diseases (IBD), mainly comprising ulcerative colitis and Crohn's Disease, are complex and multifactorial diseases with unknown etiology. To study human IBD mechanistically, a number of murine models of colitis have been developed. These models are tools to decipher underlying mechanisms of IBD pathogenesis as well as to evaluate potential therapeutics. […] Moreover, many existing IBD-approved drugs have been studied in this model to allow a comparison of new potential drug compounds as compared with existing drugs with approved IBD indications. […] mice were divided into 5 groups of 3-10 mice, provided with standard mouse chow diet ad libitum, and housed up to 5 per cage. Dexamethasone 21-phosphate disodium salt (DMS; Alfa Aesar Catalog #J64083-1G, Lot R02F035) (was used as a positive control. Hemoccult kits were obtained from Beckman (Hemoccult SENSA kit). Dextran sodium sulfate (DSS) reagent grade (MPI Catalog #160110, Lot #6046H, MW 36,000-50,000, CAS 9011-18-1) was supplemented in the water of certain groups to induced IBD-like symptoms. On day −3 treatment began prior to DSS delivery. On day 1 all mice were pre-weighed and given fresh 4-5% DSS in water every day for 5 days and water is then given for the remainder of the study to elicit disease. An additional control group was given water (no DSS) for the duration of the study (10 days). Body weight was measured daily, fecal blood status (hemoccult) was measured 3X per week, fecal consistency 3× per week and general health determined daily. Mice were sacrificed on day 10 and serum obtained for cytokine analysis and colon length and weight determined. There were two control groups of water only and DSS without drug treatment. There were two treatment groups at 69.3 mg/kg (n=10) bid and 23.1 mg/kg bid (n=10).

[3] = tested on: leptin-deficient (ob/ob) mice; assay: body weight study in leptin-deficient (ob/ob) mice, 56 days
Experimental: Therefore, ob/ob mice are a predictive in vivo model for these indications. This example provides results of a study of DA plus another compound (CQL) on body weight in leptin-deficient (ob/ob) mice. Vehicle group (N=14) were treated with distilled water by gavage BID, and DA (N=14) at a dose of 50 mg/kg by gavage BID. The study period was for 56 days+2-3 days testing period afterward. Body weight change measured 3X per week, food intake was measure twice per week, metabolic biomarkers (blood glucose, blood insulin, blood HbA1c, HDL, LDL, triglyceride and bile acid) were measured at beginning and end of study. Cytokine analysis was measured at end on Day 56.

[4] = high-dose of DA, no significant difference observed
[5] = DA 50 mg/kg BID, day 56, no significant difference
[6] = DA 50 mg/kg gavage BID, 56 days
[7] = DA 50 mg/kg gavage BID, compared to vehicle

CC(=O)[O-].CC[N+](CC)(CC(=O)Nc1c(C)cccc1C)Cc1ccccc1 [DA, denatonium acetate]
IL-1β level ([1]; higher dose of DA): significant reduction
IL-10 level ([1]; higher dose of DA): significant reduction
IL-17 level ([1]; higher dose of DA): significant reduction
TNF-1α level ([1]; higher dose of DA): significant reduction
IL-6 levels in air pouch exudates ([1]; pre-treated with DA at 96.4 mg/kg BID gavage, ELISA, vs vehicle and lower dose): significantly lower
infiltrating cell count in air pouch exudates ([1]; pre-treated with DA at 96.4 mg/kg BID gavage, vs vehicle and lower dose): significantly lower
body weight at day 10 ([2]; 69.3 mg/kg DA, BID, vs vehicle): significant effect against DSS-induced body weight loss
combined fecal score during the study period ([2]; DA 23.1 and 69.3 mg/kg bid): significant main effect
fecal consistency score during the study period ([2]; DA 23.1 and 69.3 mg/kg bid): significant main effect
fecal occult blood scores during the study period ([2]; DA 23.1 and 69.3 mg/kg bid): significant main effect
body weight changes during the study period ([2]; DA 23.1 and 69.3 mg/kg bid, P=0.0052): significant main effect
colon length at day 10 [2, 4]: could counteract DSS-induced decrease
colon weight at day 10 [2, 4]: could counteract DSS-induced decrease
spleen weight at day 10 ([2]; high-dose of DA, no significant effect observed): trend to counteract DSS-induced spleen weight loss
IL-1β level, decreased by, compared to the vehicle group [3, 5]: 19.1%
IL-6 level, decreased by, compared to the vehicle group [3, 5]: 61.4%
MCP-1 level, decreased by, compared to the vehicle group [3, 5]: 20.9%
RANTES level, decreased by, compared to the vehicle group [3, 5]: 1.7%
MIG (versus controls) ([3]; DA 50 mg/kg BID, day 56, p=0.026): significant decreases
Eotaxin (versus controls) ([3]; DA 50 mg/kg BID, day 56, p=0.047): significant decreases
serum HDL levels ([3]; DA 50 mg/kg gavage BID): no significant effects
body weight [3, 6]: no significant effect
daily food consumption [3, 6]: no significant effect
serum HBA1c levels [3, 6]: no significant effect
serum glucose levels [3, 6]: significantly decreased
serum insulin levels [3, 6]: no significant effect
serum LDL levels [3, 7]: significantly lowered
serum bile acids levels [3, 7]: significantly increased
serum triglyceride levels [3, 7]: significantly lowered
